From patent US20230002375A1, “HYDROPYRAZINO[1,2-B]ISOQUINOLINE COMPOUNDS FOR THE TREATMENT OF AUTOIMMUNE DISEASE” (Hoffmann-La Roche Inc., priority 2019, published 2023) come the findings set out here.

Data set [1] is described as follows: Human microsomal stability assay. It is filed as in vitro ADME. As to conditions: human liver microsomes, 1 μM test compound, 0.5 mg/mL protein, 37° C.; low <7.0, medium 7.0-16.2, high 16.2-23.2 mL/min/kg. Here is the method: Human Microsomal Stability Assay
Human liver microsomes (Cat.NO.: 452117, Corning, USA) were preincubated with test compound for 10 minutes at 37° C. in 100 mM potassium phosphate buffer, pH 7.4. The reactions were initiated by adding NADPH regenerating system. The final incubation mixtures contained 1 μM test compound, 0.5 mg/mL liver microsomal protein, 1 mM MgCl2, 1 mM NADP, 1 unit/mL isocitric dehydrogenase and 6 mM isocitric acid in 100 mM potassium phosphate buffer, pH 7.4. After incubation times of 0, 3, 6, 9, 15 and 30 minutes at 37° C., 300 μL of cold ACN (including internal standard) was added to 100 μL incubation mixture to terminate the reaction. Following precipitation and centrifugation, 100 uL supernatant will be taken out and added 300 uL water. The amount of compound remaining in the samples was determined by LC-MS/MS. Controls of no NADPH regenerating system at zero and 30 minutes were also prepared and analyzed. The results were categorized as: low (<7.0 mL/min/kg), medium (7.0-16.2 mL/min/kg) and high (16.2-23.2 mL/min/kg).

Another data set concerns the target T1, human TLR7 (Homo sapiens, UniProt Q9NYK1).
T1 sequence (Q9NYK1 27-1049): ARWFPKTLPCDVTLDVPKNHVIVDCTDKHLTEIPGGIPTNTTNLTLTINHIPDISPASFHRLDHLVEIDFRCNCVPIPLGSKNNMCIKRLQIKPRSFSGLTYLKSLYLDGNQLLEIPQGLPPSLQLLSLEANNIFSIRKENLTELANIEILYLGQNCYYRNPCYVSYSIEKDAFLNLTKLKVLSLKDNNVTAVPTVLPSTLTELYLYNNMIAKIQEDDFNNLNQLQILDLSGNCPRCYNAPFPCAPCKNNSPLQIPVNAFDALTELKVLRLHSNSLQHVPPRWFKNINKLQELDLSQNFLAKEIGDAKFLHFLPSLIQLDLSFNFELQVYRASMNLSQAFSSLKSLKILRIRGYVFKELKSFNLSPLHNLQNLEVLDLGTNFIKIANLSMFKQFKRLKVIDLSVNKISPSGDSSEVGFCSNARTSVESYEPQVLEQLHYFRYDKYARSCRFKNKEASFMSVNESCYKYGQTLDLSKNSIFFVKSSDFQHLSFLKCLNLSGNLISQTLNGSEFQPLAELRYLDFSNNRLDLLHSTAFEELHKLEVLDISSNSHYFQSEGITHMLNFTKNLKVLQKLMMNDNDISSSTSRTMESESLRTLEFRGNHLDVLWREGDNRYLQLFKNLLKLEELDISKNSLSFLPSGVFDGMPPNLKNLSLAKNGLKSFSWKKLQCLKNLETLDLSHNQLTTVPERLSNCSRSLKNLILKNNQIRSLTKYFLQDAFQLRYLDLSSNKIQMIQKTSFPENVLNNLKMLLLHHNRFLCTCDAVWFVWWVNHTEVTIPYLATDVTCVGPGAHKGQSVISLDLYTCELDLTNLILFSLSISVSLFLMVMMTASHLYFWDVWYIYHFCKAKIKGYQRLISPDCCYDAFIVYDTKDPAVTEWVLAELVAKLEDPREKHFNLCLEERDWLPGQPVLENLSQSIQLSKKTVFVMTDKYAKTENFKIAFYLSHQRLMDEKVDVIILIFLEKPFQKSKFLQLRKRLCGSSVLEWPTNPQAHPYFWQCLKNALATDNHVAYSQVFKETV
Description: HEK293-Blue-hTLR-7 cells assay (SEAP reporter, R848 stimulation). It is filed as cell-based. As to conditions: HEK293-Blue-hTLR7 cells, R848, 20 hrs incubation; read-out: HEK/hTLR7 IC50. Here is the method:
The following tests were carried out in order to determine the activity of the compounds of formula (I), (Ia) or (Ib) in HEK293-Blue-hTLR-7/8/9 cells assay.
HEK293-Blue-hTLR-7 Cells Assay:
A stable HEK293-Blue-hTLR-7 cell line was purchased from InvivoGen (Cat.#: hkb-htlr7, San Diego, Calif., USA). These cells were originally designed for studying the stimulation of human TLR7 by monitoring the activation of NF-κB. A SEAP (secreted embryonic alkaline phosphatase) reporter gene was placed under the control of the IFN-β minimal promoter fused to five NF-κB and AP-1-binding sites. The SEAP was induced by activating NF-κB and AP-1 via stimulating HEK-Blue hTLR7 cells with TLR7 ligands. Therefore the reporter expression was declined by TLR7 antagonist under the stimulation of a ligand, such as R848 (Resiquimod), for incubation of 20 hrs. The cell culture supernatant SEAP reporter activity was determined using QUANTI-Blue™ kit (Cat.#: rep-qb1, Invivogen, San Diego, Ca, USA) at a wavelength of 640 nm, a detection medium that turns purple or blue in the presence of alkaline phosphatase.
HEK293-Blue-hTLR7 cells were incubated at a density of 250,000˜450,000 cells/mL in a volume of 170 μL in a 96-well plate in Dulbecco's Modified Eagle's medium (DMEM) containing 4.5 g/L glucose, 50 U/mL penicillin, […], […], 2 mM L-glutamine, 10% (v/v) heat-inactivated fetal bovine serum with addition of 20 μL test compound in a serial dilution in the presence of final DMSO at 1% and 10 μL of 20 uM R848 in above DMEM, perform incubation under 37° C. in a CO2 incubator for 20 hrs. Then 20 μL of the supernatant from each well was incubated with 180 μL Quanti-blue substrate solution at 37° C. for 2 hrs and the absorbance was read at 620-655 nm using a spectrophotometer. The signaling pathway that TLR7 activation leads to downstream NF-κB activation has been widely accepted, and therefore similar reporter assay was modified for evaluating TLR7 antagonist.

On to `C[C@@H]1CN(c2ccc(C#N)c3ncccc23)C[C@@H]2Cc3cc(N4CCN(C(=O)[C@]5(C)CCCN5)CC4)ccc3CN21` [Example 14, 5-[(4R,11aS)-4-methyl-9-[4-[(2S)-2-methylpyrrolidine-2-carbonyl]piperazin-1-yl]-1,3,4,6,11,11a-hexahydropyrazino[1,2-b]isoquinolin-2-yl]quinoline-8-carbonitrile], for which the “CL(h)” value in data set [1] was found to be 8.7 mL/min/kg. Moreover, the IC50 at human TLR7 stood at 0.0186 µM.

Turning to `C[C@@H]1CN(c2ccc(C#N)c3ncccc23)C[C@@H]2Cc3cc(N4CC(N)CC4=O)ccc3CN21` (stereo partly drawn) [Example 16, 5-[(4R,11aS)-9-(4-amino-2-oxo-pyrrolidin-1-yl)-4-methyl-1,3,4,6,11,11a-hexahydropyrazino[1,2-b]isoquinolin-2-yl]quinoline-8-carbonitrile], in data set [1], the “CL(h)” value was 6.8 mL/min/kg. The IC50 at human TLR7 was found to be 0.0029 µM.
